Measurements as given in the NIST ThermoML archive (doi:10.1021/acs.jced.9b00041).
Numbers after ± are expanded uncertainties.

What was measured:
[1] = 298.15 K; 101.33 kPa; Liquid; Vibrating tube method
[2] = wn = mass fraction of the nth substance listed; conditions: 298.15 K; 100 kPa; Liquid; Vibrating tube method; w2 = 0.089

mass density [1] [kg/m3] | mass density [2] [kg/m3] | SMILES
 | 1202.57 ± 10 | CC(O)C(=O)O (centres undefined) [2-hydroxypropanoic acid] + O
1202.57 ± 35 |  | CC(O)C(=O)O (centres undefined) [2-hydroxypropanoic acid]
1135.71 ± 10 |  | CC(=O)CCC(=O)O [4-oxopentanoic acid]

SMILES | mass density [1] [kg/m3] | mass density [2] [kg/m3]
CCCC[n+]1ccn(C)c1.O=S(=O)([N-]S(=O)(=O)C(F)(F)F)C(F)(F)F | 1436.46 ± 10 | 
